Reference: US20170029451A1, “BRANCHED CHAIN ACYCLIC NUCLEOSIDE PHOSPHONATE ESTERS AND METHODS OF SYNTHESIS AND USES THEREOF” (CHIMERIX, INC., priority 2013, published 2017)
Read-outs that look alike come from different tables or passages of the source.

Assays:
[1] = Cytotoxicity in 2.2.15 cells; format: cell-based; details: human, cell line 2.2.15 (HBV row)
in vitro [2] = details: African green monkey
in vitro [3] = details: dog
[4] = tested on: Human Cytomegalovirus (HCMV); assay: HCMV EC50 in MRC-5 cells (qPCR of intracellular CMV DNA); format: cell-based
Experimental: Costar 96-well tissue culture plates were seeded with 20,000 MRC-5 cells/well in EMEM containing 2% Hyclone Standard Fetal Bovine Serum and 1% Hyclone Penicillin and Streptomycin. Outer wells were not used to minimize the edge-effect produced by extended incubations. Cells were inoculated with HCMV at an MOI of 0.01. Serial dilutions of test compounds were added to the cells and plates were incubated for 7 days at 37° C. in 5% CO2. […] Culture medium was gently removed from infected cells after the 7-day incubation. The cells were rinsed twice with ice-cold PBS, and then freeze/thawed once. Each well was incubated with 200 μL lysis buffer for 2 hours at 55° C. Lysis buffer included 0.5 mg/mL protease K, 50 mM KCl, 10 mM Tris-Cl pH 8.0, 2.5 mM MgCl2, 0.45% IGEPAL, and 0.45% Tween-20 dissolved in DEPC-treated water. Intracellular CMV DNA was measured by quantitative polymerase chain reaction (qPCR) using forward and reverse HCMV PCR primers, and a FAM-labeled probe. Absolute quantitation of viral copy number was performed using a standard curve with dilutions of a HCMV DNA amplicon containing sequences homologous to the amplified fragment. The following qPCR amplification conditions were used: 1 cycle at 95° C. for 10 minutes, followed by 45 cycles of 95° C. for 15 seconds and 60° C. for 60 seconds. The qPCR reactions were performed using an Applied Biosystems 7500 real Time PCR System. Gen 5 software (BioTek Instruments, Inc.) was used to calculate the concentration which inhibited the viral DNA levels of HCMV-infected MRC-5 cells by 50% (EC50).

[5] = tested on: HCMV UL54 resistant mutant GDG^RP53; assay: microbe, parasite or virus in culture; format: cell-based, Human Cytomegalovirus (HCMV); details: Human betaherpesvirus 5, Fibroblast
[6] = tested on: Cowpox Virus (Strain Brighton); assay: microbe, parasite or virus in culture; format: cell-based; details: Fibroblast, read-out: CPXV EC50, μM
[7] = Cytotoxicity (CC50) in MT4 cells; format: cell-based; details: human
Experimental: Costar 96-well tissue culture plates were seeded with 5,000 MT4 cells (NIH AIDS Reagents Program)/well in RPMI (Lonza, Cat 12-11F) containing 10% Hyclone Standard Fetal Bovine Serum (FBS, Cat 5H30088.03), 1% Hyclone Penicillin and Streptomycin (Cat SV30010), and 2 mM Lonza L-Glutamine (Cat 17-605E). Outer wells were not used to minimize the edge-effect produced by extended incubations. Serial dilutions of test compounds were added to the cells and plates were incubated for 6 days at 37° C. in 5% CO2. After 6 days of incubation 40 μL of Cell Titer 96® Aqueous MTS Reagent (Promega, G111) was added as directed by manufacturer to the 200 μL media in each well and incubated at 37° C. until the untreated-cell controls developed an 490 nm absorbance between 1.1 and 1.8. The final absorbance readings were read using a BioTek Synergy 2, and Gen 5 software (BioTek Instruments, Inc.) was used to calculate the concentration which inhibited MT4 cells by 50% (CC50).

Ebola = assay: microbe, parasite or virus in culture; format: cell-based, ebola virus; details: Zaire ebolavirus
[8] = Cytotoxicity (CC50) in Vero cells; format: cell-based; details: African green monkey, cell line Vero (BKV row)
Experimental: Costar 96-well tissue culture plates were seeded with 10,000 Vero cells (ATCC)/well in DMEM (ATCC, Cat 30-2002) containing 2% Hyclone Standard Fetal Bovine Serum (FBS, Cat 5H30088.03) and 1% Hyclone Penicillin and Streptomycin (Cat SV30010). Outer wells were not used to minimize the edge-effect produced by extended incubations. Serial dilutions of test compounds were added to the cells and plates were incubated for 7 days at 37° C. in 5% CO2. After 7 days of incubation 40 μL of Cell Titer 96® Aqueous MTS Reagent (Promega, G111) was added as directed by manufacturer to the 200 iut media in each well and incubated at 37° C. until the untreated-cell controls developed an 490 nm absorbance between 1.1 and 1.8. The final absorbance readings were read using a BioTek Synergy 2, and Gen 5 software (BioTek Instruments, Inc.) was used to calculate the concentration which inhibited Vero cells by 50% (CC50).

HCV = HCV antiviral activity in Huh cells; format: cell-based; details: Hepatitis C virus, cell line Huh

Q: With `CC(C)CCCCCCCCCCCCCCOCCCOP(=O)(O)COC(CO)Cn1ccc(=O)[nH]c1=O` (centres unmarked) [Compound 12] as the molecule, how does the CC50 [1] read?
A: 34000 nM

Q: And the CC50 (in vitro [2])?
A: 29000 nM

Q: And the CC50 (in vitro [3])?
A: 17200 nM

Q: And the EC50 ([4]; Human betaherpesvirus 5, MRC5, HCMV in MRC-5 cells (Table 7), read-out: CMV EC50)?
A: 27 nM

Q: What about the EC50 ([4]; Human betaherpesvirus 5, MRC5, Mean XC50 (Table 9), read-out: HCMV EC50) of the same molecule?
A: 17 nM

Q: And the EC50 ([4]; Human betaherpesvirus 5, Virus HCMV, cell line MRC5 (Table 8), read-out: EC50)?
A: 17 nM

Q: What about the EC50 ([5]; read-out: EC50 μM, Virus GDG^RP53, human foreskin fibroblast cells) of the same molecule?
A: ~0.171 µM

Q: What about the EC90 ([5]; read-out: EC90 μM) of the same molecule?
A: 1.55 µM

Q: What about the EC50 [6] of the same molecule?
A: > 10 µM

Q: And the CC50 at 6 days ([7]; MT4 cells (Table 7), read-out: MT4 CC50)?
A: 25600 nM

Q: And the CC50 at 6 days ([7]; Mean XC50 (Table 9), read-out: MT4 cytotoxicity CC50)?
A: 24700 nM

Q: What about the EC50 (Ebola) of the same molecule?
A: 1000 nM

Q: And the CC50 at 7 days [8]?
A: 93000 nM

Q: And the EC50 (HCV)?
A: 570 nM
